Data as given in patent US10538555B2, “Macrocyclic inhibitors of the PD-1/PD-L1 and CD80(B7-1)/PD-L1 protein/protein interactions” (BRISTOL-MYERS SQUIBB COMPANY, priority 2014, dated 2020).
Where a SMILES comes first, the peptide text is derived from it. Bridges are numbered along the chain shown (N, C = ends). [ ]: non-standard residue; d: D form. Phe(3,4,5-F3) = N[C@@H](Cc1cc(F)c(F)c(F)c1)C(=O)O; NMePhe(4-F) = CN[C@@H](Cc1ccc(F)cc1)C(=O)O; Phe(4-F) = N[C@@H](Cc1ccc(F)cc1)C(=O)O; NMeF = CN[C@@H](Cc1ccccc1)C(=O)O; dPip(4-aza) = O=C(O)[C@H]1CNCCN1; NMeNle = CCCC[C@H](NC)C(=O)O; Orn = NCCC[C@H](N)C(=O)O; Dab = NCC[C@H](N)C(=O)O

These molecules were tested against T1, Human PD-L1/PD-1 (Homo sapiens, UniProt Q9NZQ7) (assay: HTRF Human PD-L1/PD-1 binding assay (PD-1-Ig/PD-L1-His)). Conditions: PD-L1-His 10 nM, PD-1-Ig 20 nM; class symbol; read-out: HTRF Human PD-L1/PD-1 Binding Assay IC50 Range.
T1 construct: TVMV protease cleavage site (C); made in house; host or cells: HEK293T cells
Method in brief: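 Soluble HEK293T-expressed proteins: hPD-L1-His 10 nM, hPD-1-Ig 20 nM final. Cpd + PD-L1 15 min, + PD-1 15 min, + Eu anti-Ig 1 nM/APC anti-His 20 nM 30 min. Buffer dPBS, 0.1% BSA, 0.05% Tween-20. TR-FRET 665/620.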

T1 sequence (Q9NZQ7 with tags, fused parts or gaps): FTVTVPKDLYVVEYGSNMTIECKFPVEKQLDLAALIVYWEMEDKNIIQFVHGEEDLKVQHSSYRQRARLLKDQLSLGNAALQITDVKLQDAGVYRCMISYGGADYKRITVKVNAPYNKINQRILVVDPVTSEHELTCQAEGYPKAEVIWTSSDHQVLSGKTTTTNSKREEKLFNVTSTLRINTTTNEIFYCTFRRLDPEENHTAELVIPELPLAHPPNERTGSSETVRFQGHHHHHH

IC50 [nM] | Structure (SMILES)
1 to 9.9 | CCCC[C@H]1C(=O)N2CCC[C@@H]2C(=O)N[C@@H](CC(=O)O)C(=O)N[C@@H](C(C)C)C(=O)N(C)[C@@H](Cc2ccccc2)C(=O)N[C@@H](Cc2ccc(O)cc2)C(=O)N2CCC[C@@H]2C(=O)N[C@@H](Cc2c[nH]c3ccccc23)C(=O)N[C@@H](Cc2ccc(O)cc2)C(=O)N[C@@H](CCCCN)C(=O)N[C@H](C(=O)NCC(N)=O)CSCC(=O)N[C@@H](Cc2cc(F)c(F)c(F)c2)C(=O)N(C)[C@@H](Cc2ccccc2)C(=O)N1C [Example 10096] ({CH2CO}-[Phe(3,4,5-F3)][NMeF][NMeNle][dP]DV[NMeF]Y[dP]WYKCG-NH2; thioether N-13)
1 to 9.9 | CCCC[C@H]1C(=O)N2CCC[C@@H]2C(=O)N[C@@H](CC(=O)O)C(=O)N[C@@H](C(C)C)C(=O)N(C)[C@@H](Cc2ccccc2)C(=O)N[C@@H](Cc2ccc(O)cc2)C(=O)N2CCC[C@@H]2C(=O)N[C@@H](Cc2c[nH]c3ccccc23)C(=O)N[C@@H](Cc2ccc(O)cc2)C(=O)N[C@@H](CCC(=O)O)C(=O)N[C@H](C(=O)NCC(N)=O)CSCC(=O)N[C@@H](Cc2cc(F)c(F)c(F)c2)C(=O)N(C)[C@@H](Cc2ccccc2)C(=O)N1C [Example 10097] ({CH2CO}-[Phe(3,4,5-F3)][NMeF][NMeNle][dP]DV[NMeF]Y[dP]WYECG-NH2; thioether N-13)
1 to 9.9 | CCCC[C@H]1C(=O)N2CCC[C@@H]2C(=O)N[C@@H](CC(=O)O)C(=O)N[C@@H](C(C)C)C(=O)N(C)[C@@H](Cc2ccccc2)C(=O)N[C@@H](Cc2ccc(O)cc2)C(=O)N2CCC[C@@H]2C(=O)N[C@@H](Cc2c[nH]c3ccccc23)C(=O)N[C@@H](Cc2ccc(O)cc2)C(=O)N[C@@H](CCCN)C(=O)N[C@H](C(=O)NCC(N)=O)CSCC(=O)N[C@@H](Cc2cc(F)c(F)c(F)c2)C(=O)N(C)[C@@H](Cc2ccccc2)C(=O)N1C [Example 10098] ({CH2CO}-[Phe(3,4,5-F3)][NMeF][NMeNle][dP]DV[NMeF]Y[dP]WY[Orn]CG-NH2; thioether N-13)
1 to 9.9 | CCCC[C@H]1C(=O)N2CCC[C@@H]2C(=O)N[C@@H](CC(=O)O)C(=O)N[C@@H](C(C)C)C(=O)N(C)[C@@H](Cc2ccccc2)C(=O)N[C@@H](Cc2ccc(O)cc2)C(=O)N2CCC[C@@H]2C(=O)N[C@@H](Cc2c[nH]c3ccccc23)C(=O)N[C@@H](Cc2ccc(O)cc2)C(=O)N[C@@H](CC(=O)O)C(=O)N[C@H](C(=O)NCC(N)=O)CSCC(=O)N[C@@H](Cc2cc(F)c(F)c(F)c2)C(=O)N(C)[C@@H](Cc2ccccc2)C(=O)N1C [Example 10099] ({CH2CO}-[Phe(3,4,5-F3)][NMeF][NMeNle][dP]DV[NMeF]Y[dP]WYDCG-NH2; thioether N-13)
1 to 9.9 | CCCC[C@H]1C(=O)N2CCC[C@@H]2C(=O)N[C@@H](CC(=O)O)C(=O)N[C@@H](C(C)C)C(=O)N(C)[C@@H](Cc2ccccc2)C(=O)N[C@@H](Cc2ccc(O)cc2)C(=O)N2CCNC[C@@H]2C(=O)N[C@@H](Cc2c[nH]c3ccccc23)C(=O)N[C@@H](Cc2ccc(O)cc2)C(=O)N[C@@H](CC(C)C)C(=O)N[C@H](C(=O)NCC(N)=O)CSCC(=O)N[C@@H](Cc2cc(F)c(F)c(F)c2)C(=O)N(C)[C@@H](Cc2ccccc2)C(=O)N1C [Example 10100] ({CH2CO}-[Phe(3,4,5-F3)][NMeF][NMeNle][dP]DV[NMeF]Y[dPip(4-aza)]WYLCG-NH2; thioether N-13)
1 to 9.9 | CCCC[C@H]1C(=O)N2CCC[C@@H]2C(=O)N[C@@H](CC(=O)O)C(=O)N[C@@H](C(C)C)C(=O)N(C)[C@@H](Cc2ccccc2)C(=O)N[C@@H](CCCN)C(=O)N2CCC[C@@H]2C(=O)N[C@@H](Cc2c[nH]c3ccccc23)C(=O)N[C@@H](Cc2ccc(O)cc2)C(=O)N[C@@H](CC(C)C)C(=O)N[C@H](C(=O)NCC(N)=O)CSCC(=O)N[C@@H](Cc2cc(F)c(F)c(F)c2)C(=O)N(C)[C@@H](Cc2ccccc2)C(=O)N1C [Example 10104] ({CH2CO}-[Phe(3,4,5-F3)][NMeF][NMeNle][dP]DV[NMeF][Orn][dP]WYLCG-NH2; thioether N-13)

Second part, the molecule before the results:

Structure (SMILES) | IC50 [nM]
CCCC[C@H]1C(=O)N2CCC[C@@H]2C(=O)N[C@@H](CC(=O)O)C(=O)N[C@@H](C(C)C)C(=O)N(C)[C@@H](Cc2ccccc2)C(=O)N[C@@H](CCCN)C(=O)N2CCC[C@@H]2C(=O)N[C@@H](Cc2c[nH]c3ccccc23)C(=O)N[C@@H](Cc2ccc(O)cc2)C(=O)N[C@@H](CC(C)C)C(=O)N[C@H](C(=O)NCC(N)=O)CSCC(=O)N[C@@H](Cc2ccc(F)cc2)C(=O)N(C)[C@@H](Cc2ccccc2)C(=O)N1C [Example 10102] ({CH2CO}-[Phe(4-F)][NMeF][NMeNle][dP]DV[NMeF][Orn][dP]WYLCG-NH2; thioether N-13) | 1 to 9.9
CCCC[C@H]1C(=O)N2CCC[C@@H]2C(=O)N[C@@H](CC(=O)O)C(=O)N[C@@H](C(C)C)C(=O)N(C)[C@@H](Cc2ccccc2)C(=O)N[C@@H](CCCN)C(=O)N2CCC[C@@H]2C(=O)N[C@@H](Cc2c[nH]c3ccccc23)C(=O)N[C@@H](Cc2ccc(O)cc2)C(=O)N[C@@H](CC(C)C)C(=O)N[C@H](C(=O)NCC(N)=O)CSCC(=O)N[C@@H](Cc2ccccc2)C(=O)N(C)[C@@H](Cc2ccccc2)C(=O)N1C [Example 10103] ({CH2CO}-F[NMeF][NMeNle][dP]DV[NMeF][Orn][dP]WYLCG-NH2; thioether N-13) | 1 to 9.9
CCCC[C@H]1C(=O)N2CCC[C@@H]2C(=O)N[C@@H](CC(=O)O)C(=O)N[C@@H](C(C)C)C(=O)N(C)[C@@H](Cc2ccccc2)C(=O)N[C@@H](CCN)C(=O)N2CCC[C@@H]2C(=O)N[C@@H](Cc2c[nH]c3ccccc23)C(=O)N[C@@H](Cc2ccc(O)cc2)C(=O)N[C@@H](CC(C)C)C(=O)N[C@H](C(=O)NCC(N)=O)CSCC(=O)N[C@@H](Cc2ccc(F)cc2)C(=O)N(C)[C@@H](Cc2ccccc2)C(=O)N1C [Example 10105] ({CH2CO}-[Phe(4-F)][NMeF][NMeNle][dP]DV[NMeF][Dab][dP]WYLCG-NH2; thioether N-13) | 1 to 9.9
CCCC[C@H]1C(=O)N2CCC[C@@H]2C(=O)N[C@@H](CC(=O)O)C(=O)N[C@@H](C(C)C)C(=O)N(C)[C@@H](Cc2ccccc2)C(=O)N[C@@H](CC(=O)O)C(=O)N2CCC[C@@H]2C(=O)N[C@@H](Cc2c[nH]c3ccccc23)C(=O)N[C@@H](Cc2ccc(O)cc2)C(=O)N[C@@H](CC(C)C)C(=O)N[C@H](C(=O)NCC(N)=O)CSCC(=O)N[C@@H](Cc2ccc(F)cc2)C(=O)N(C)[C@@H](Cc2ccccc2)C(=O)N1C [Example 10106] ({CH2CO}-[Phe(4-F)][NMeF][NMeNle][dP]DV[NMeF]D[dP]WYLCG-NH2; thioether N-13) | 1 to 9.9
CCCC[C@H]1C(=O)N2CCC[C@@H]2C(=O)N[C@@H](CC(=O)O)C(=O)N[C@@H](C(C)C)C(=O)N(C)[C@@H](Cc2ccccc2)C(=O)N[C@@H](CCC(=O)O)C(=O)N2CCC[C@@H]2C(=O)N[C@@H](Cc2c[nH]c3ccccc23)C(=O)N[C@@H](Cc2ccc(O)cc2)C(=O)N[C@@H](CC(C)C)C(=O)N[C@H](C(=O)NCC(N)=O)CSCC(=O)N[C@@H](Cc2ccc(F)cc2)C(=O)N(C)[C@@H](Cc2ccccc2)C(=O)N1C [Example 10107] ({CH2CO}-[Phe(4-F)][NMeF][NMeNle][dP]DV[NMeF]E[dP]WYLCG-NH2; thioether N-13) | 1 to 9.9
CCCC[C@H]1C(=O)N2CCC[C@@H]2C(=O)N[C@@H](CC(=O)O)C(=O)N[C@@H](C(C)C)C(=O)N(C)[C@@H](Cc2ccc(F)cc2)C(=O)N[C@@H](CCCN)C(=O)N2CCC[C@@H]2C(=O)N[C@@H](Cc2c[nH]c3ccccc23)C(=O)N[C@@H](Cc2ccc(O)cc2)C(=O)N[C@@H](CC(C)C)C(=O)N[C@H](C(=O)NCC(N)=O)CSCC(=O)N[C@@H](Cc2ccc(F)cc2)C(=O)N(C)[C@@H](Cc2ccccc2)C(=O)N1C [Example 10108] ({CH2CO}-[Phe(4-F)][NMeF][NMeNle][dP]DV[NMePhe(4-F)][Orn][dP]WYLCG-NH2; thioether N-13) | 1 to 9.9
CCCC[C@H]1C(=O)N2CCC[C@@H]2C(=O)N[C@@H](CC(=O)O)C(=O)N[C@@H](C(C)C)C(=O)N(C)[C@@H](Cc2ccc(F)cc2)C(=O)N[C@@H](CCN)C(=O)N2CCC[C@@H]2C(=O)N[C@@H](Cc2c[nH]c3ccccc23)C(=O)N[C@@H](Cc2ccc(O)cc2)C(=O)N[C@@H](CC(C)C)C(=O)N[C@H](C(=O)NCC(N)=O)CSCC(=O)N[C@@H](Cc2ccc(F)cc2)C(=O)N(C)[C@@H](Cc2ccccc2)C(=O)N1C [Example 10109] ({CH2CO}-[Phe(4-F)][NMeF][NMeNle][dP]DV[NMePhe(4-F)][Dab][dP]WYLCG-NH2; thioether N-13) | 10 to 99.9
CCCC[C@H]1C(=O)N2CCC[C@@H]2C(=O)N[C@@H](CC(=O)O)C(=O)N[C@@H](C(C)C)C(=O)N(C)[C@@H](Cc2ccc(F)cc2)C(=O)N[C@@H](CC(=O)O)C(=O)N2CCC[C@@H]2C(=O)N[C@@H](Cc2c[nH]c3ccccc23)C(=O)N[C@@H](Cc2ccc(O)cc2)C(=O)N[C@@H](CC(C)C)C(=O)N[C@H](C(=O)NCC(N)=O)CSCC(=O)N[C@@H](Cc2ccc(F)cc2)C(=O)N(C)[C@@H](Cc2ccccc2)C(=O)N1C [Example 10110] ({CH2CO}-[Phe(4-F)][NMeF][NMeNle][dP]DV[NMePhe(4-F)]D[dP]WYLCG-NH2; thioether N-13) | 1 to 9.9
CCCC[C@H]1C(=O)N2CCC[C@@H]2C(=O)N[C@@H](CC(=O)O)C(=O)N[C@@H](C(C)C)C(=O)N(C)[C@@H](Cc2ccc(F)cc2)C(=O)N[C@@H](CCC(=O)O)C(=O)N2CCC[C@@H]2C(=O)N[C@@H](Cc2c[nH]c3ccccc23)C(=O)N[C@@H](Cc2ccc(O)cc2)C(=O)N[C@@H](CC(C)C)C(=O)N[C@H](C(=O)NCC(N)=O)CSCC(=O)N[C@@H](Cc2ccc(F)cc2)C(=O)N(C)[C@@H](Cc2ccccc2)C(=O)N1C [Example 10111] ({CH2CO}-[Phe(4-F)][NMeF][NMeNle][dP]DV[NMePhe(4-F)]E[dP]WYLCG-NH2; thioether N-13) | 1 to 9.9
